Experimental data published in US11945806B2, “Stabilization of amyloidogenic immunoglobulin light chains” (The Scripps Research Institute, priority 2019, dated 2024).

Each compound was assayed against WIL-FL (Homo sapiens, UniProt P01721) (assay: Unlabeled LC Protease Sensitivity Assay (proteinase K)). Settings: small molecule 10 μM, WIL-FL 5 μM, proteinase K 50 nM, 2 hours at 37° C.
Format: biochemical
Outline: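 Compound at 10 μM (1% DMSO) is mixed with 5 μM WIL-FL and 50 nM proteinase K in PBS pH 7.4/0.02% Pluronic F-127, 37 °C, 2 h, then quenched with PMSF. Remaining protein measured by SEC-UPLC peak area at 280 nm and expressed as fold protection relative to vehicle and no-protease controls.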

SMILES | Protection (fold protection of LC from protease)
CCN(CC)c1ccc2c(C)c(CCN3CC4(CCN(c5ccccc5)CC4)NC3=O)c(=O)oc2c1 [Compound 158, 3-(2-(7-(diethylamino)-4-methyl-2-oxo-2H-chromen-3-yl)ethyl)-8-phenyl-1,3,8-triazaspiro[4.5]decan-2-one] | B (3 ≤ B < 0.6)
CCN(CC)c1ccc2c(C)c(CCOC(=O)NCc3cccc(-c4cc[nH]n4)c3)c(=O)oc2c1 [Compound 159, 2-(7-(diethylamino)-4-methyl-2-oxo-2H-chromen-3-yl)ethyl (3-(1H-pyrazol-5-yl)benzyl)carbamate] | C (C ≥ 0.6)
CCN(CC)c1ccc2c(C)c(CCOC(=O)NCc3cccc(-c4nc[nH]c4C)c3)c(=O)oc2c1 [Compound 160, 2-(7-(diethylamino)-4-methyl-2-oxo-2H-chromen-3-yl)ethyl (3-(5-methyl-1H-imidazol-4-yl)benzyl)carbamate] | C (C ≥ 0.6)
CCN(CC)c1ccc2c(C)c(CCOC(=O)NCc3cccc(-c4cccnc4)c3)c(=O)oc2c1 [Compound 161, 2-(7-(diethylamino)-4-methyl-2-oxo-2H-chromen-3-yl)ethyl (3-(pyridin-3-yl)benzyl)carbamate] | C (C ≥ 0.6)
CCN(CC)c1ccc2c(C)c(CCOC(=O)NCc3cccc(-c4ccncc4)c3)c(=O)oc2c1 [Compound 162, 2-(7-(diethylamino)-4-methyl-2-oxo-2H-chromen-3-yl)ethyl (3-(pyridin-4-yl)benzyl)carbamate] | C (C ≥ 0.6)
CCN(CC)c1ccc2c(C)c(CCOC(=O)NCc3cccc(-c4ccc[nH]c4=O)c3)c(=O)oc2c1 [Compound 163, 2-(7-(diethylamino)-4-methyl-2-oxo-2H-chromen-3-yl)ethyl (3-(2-oxo-1,2-dihydropyridin-3-yl)benzyl)carbamate] | C (C ≥ 0.6)
CCN(CC)c1ccc2c(C)c(CCOC(=O)NCc3cccc(-c4cn[nH]c4)c3)c(=O)oc2c1 [Compound 164, 2-(7-(diethylamino)-4-methyl-2-oxo-2H-chromen-3-yl)ethyl (3-(1H-pyrazol-4-yl)benzyl)carbamate] | C (C ≥ 0.6)
CCN(CC)c1ccc2c(C)c(CCOC(=O)NCc3cccc(-c4nc[nH]n4)c3)c(=O)oc2c1 [Compound 165, 2-(7-(diethylamino)-4-methyl-2-oxo-2H-chromen-3-yl)ethyl (3-(1H-1,2,4-triazol-5-yl)benzyl)carbamate] | C (C ≥ 0.6)
CCN(CC)c1ccc2c(C)c(CCOC(=O)NCc3cccc(-c4cccnn4)c3)c(=O)oc2c1 [Compound 166, 2-(7-(diethylamino)-4-methyl-2-oxo-2H-chromen-3-yl)ethyl (3-(pyridazin-3-yl)benzyl)carbamate] | C (C ≥ 0.6)
CCC(CC)c1ccc2c(C)cc(=O)oc2c1 [Compound 168, 4-methyl-7-(pentan-3-yl)-2H-chromen-2-one] | A (A < 0.3))
Cc1cc(=O)oc2cc(C(F)(F)F)ccc12 [Compound 169, 4-methyl-7-(trifluoromethyl)-2H-chromen-2-one] | A (A < 0.3))
CCN(CC)c1ccc2c(C)c(CCOC(=O)NCc3cccc(C(=N)NO)c3)c(=O)oc2c1 [Compound 170, 2-(7-(diethylamino)-4-methyl-2-oxo-2H-chromen-3-yl)ethyl (3-(N-hydroxycarbamimidoyl)benzyl)carbamate] | C (C ≥ 0.6)
Cc1cc(=O)oc2cc(OC(C)c3cccnc3)ccc12 (centres unmarked) [Compound 171, 4-methyl-7-(1-(pyridin-3-yl)ethoxy)-2H-chromen-2-one] | A (A < 0.3))
Cc1cc(=O)oc2cc(OC(C)c3ccncc3)ccc12 (centres unmarked) [Compound 172, 4-methyl-7-(1-(pyridin-4-yl)ethoxy)-2H-chromen-2-one] | A (A < 0.3))
Cc1cc(=O)oc2cc(OC(C)c3cnccn3)ccc12 (centres unmarked) [Compound 173, 4-methyl-7-(1-(pyrazin-2-yl)ethoxy)-2H-chromen-2-one] | A (A < 0.3))
Cc1cc(=O)oc2cc(OC(C)c3ccccn3)ccc12 (centres unmarked) [Compound 174, 4-methyl-7-(1-(pyridin-2-yl)ethoxy)-2H-chromen-2-one] | A (A < 0.3))
CCN(CC)c1ccc2c(C)c(CCN3C(=O)NC4(CCN(C(=O)c5c[nH]cn5)CC4)C3=O)c(=O)oc2c1 [Compound 176, 3-(2-(7-(diethylamino)-4-methyl-2-oxo-2H-chromen-3-yl)ethyl)-8-(1H-imidazole-4-carbonyl)-1,3,8-triazaspiro[4.5]decane-2,4-dione] | B (3 ≤ B < 0.6)
CCN(CC)c1ccc2c(C)c(CCN3C(=O)NC4(CCN(C(=O)c5ncc[nH]5)CC4)C3=O)c(=O)oc2c1 [Compound 177, 3-(2-(7-(diethylamino)-4-methyl-2-oxo-2H-chromen-3-yl)ethyl)-8-(1H-imidazole-2-carbonyl)-1,3,8-triazaspiro[4.5]decane-2,4-dione] | C (C ≥ 0.6)
CCN(CC)c1ccc2c(C)c(CCN3C(=O)NC4(CCN(C(=O)c5ccc[nH]c5=O)CC4)C3=O)c(=O)oc2c1 [Compound 178, 3-(2-(7-(diethylamino)-4-methyl-2-oxo-2H-chromen-3-yl)ethyl)-8-(2-oxo-1,2-dihydropyridine-3-carbonyl)-1,3,8-triazaspiro[4.5]decane-2,4-dione] | A (A < 0.3))
CCN(CC)c1ccc2c(C)c(CCN3C(=O)NC4(CCNC4)C3=O)c(=O)oc2c1 (centres unmarked) [Compound 179, 3-(2-(7-(diethylamino)-4-methyl-2-oxo-2H-chromen-3-yl)ethyl)-1,3,7-triazaspiro[4.4]nonane-2,4-dione] | B (3 ≤ B < 0.6)
CCN(CC)c1ccc2c(C)c(CCN3C(=O)NC4(CCN(C(=O)c5cnc[nH]5)C4)C3=O)c(=O)oc2c1 (centres unmarked) [Compound 180, 3-(2-(7-(diethylamino)-4-methyl-2-oxo-2H-chromen-3-yl)ethyl)-7-(1H-imidazole-4-carbonyl)-1,3,7-triazaspiro[4.4]nonane-2,4-dione] | C (C ≥ 0.6)
CCN(CC)c1ccc2c(C)c(CCN3C(=O)NC4(CCN(C(=O)c5ncc[nH]5)C4)C3=O)c(=O)oc2c1 (centres unmarked) [Compound 181, 3-(2-(7-(diethylamino)-4-methyl-2-oxo-2H-chromen-3-yl)ethyl)-7-(1H-imidazole-2-carbonyl)-1,3,7-triazaspiro[4.4]nonane-2,4-dione] | C (C ≥ 0.6)
CCN(CC)c1ccc2c(C)c(CCN3C(=O)NC4(CCN(C(=O)c5ccc[nH]c5=O)C4)C3=O)c(=O)oc2c1 (centres unmarked) [Compound 182, 3-(2-(7-(diethylamino)-4-methyl-2-oxo-2H-chromen-3-yl)ethyl)-7-(2-oxo-1,2-dihydropyridine-3-carbonyl)-1,3,7-triazaspiro[4.4]nonane-2,4-dione] | B (3 ≤ B < 0.6)
